According to patent publication US7728028B2, “Substituted imidazoline compounds” (Gruenenthal GmbH, priority 2005, dated 2010):

target: T1, human μ-opiate receptor (Homo sapiens, UniProt P35372); test: Affinity for the human μ-opiate receptor ([3H]-naloxone displacement, SPA); details: Table 1, aldehydes; test substance 1 μmole/l; inhibition of specific [3H]-naloxone binding; CHO-K1 membranes; read-out: μ-Opioid receptor, % inhibition [1 μM]
T1 construct: purchased PerkinElmer Life Sciences, Zaventem, Belgium RB-HOM; host or cells: CHO-K1 cells (recombinant expression; membrane preparation)
In short: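 CHO-K1 membranes expressing the receptor, incubated 90 min at room temperature with 1 nmol/l [3H]-naloxone and WGA-SPA beads in 50 mmol/l Tris-HCl with 0.06% BSA. Non-specific binding defined with 100 μmol/l naloxone. Value is % inhibition of specific binding at 1 μmol/l test substance.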

T1 sequence (P35372 whole entry): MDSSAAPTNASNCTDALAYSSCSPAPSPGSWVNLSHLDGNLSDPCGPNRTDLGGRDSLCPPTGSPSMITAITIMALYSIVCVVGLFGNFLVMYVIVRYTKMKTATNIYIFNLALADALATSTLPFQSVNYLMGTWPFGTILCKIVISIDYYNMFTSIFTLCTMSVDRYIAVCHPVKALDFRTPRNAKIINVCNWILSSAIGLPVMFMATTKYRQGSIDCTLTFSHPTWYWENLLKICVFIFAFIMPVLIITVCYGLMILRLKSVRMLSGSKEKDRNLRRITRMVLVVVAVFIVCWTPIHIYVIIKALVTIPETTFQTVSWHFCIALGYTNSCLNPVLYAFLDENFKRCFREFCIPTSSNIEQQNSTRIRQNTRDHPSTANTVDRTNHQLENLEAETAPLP

| Compound | inhibition at 1 µM [%] |
| --- | --- |
| CN(C)C(c1ccc(Cl)cc1)C1CCC(CC=O)CC1 (stereo not drawn) [Example 10c, {4-[(4-Chlorophenyl)-dimethylaminomethyl]-cyclohexyl}-acetaldehyde] | 50 |

same assay, conditions: Table 2, Examples 11-161; test substance 1 μmole/l; inhibition of specific [3H]-naloxone binding; CHO-K1 membranes; read-out: μ-Opioid receptor, % inhibition [1 μM]

| Compound | inhibition at 1 µM [%] |
| --- | --- |
| CCCC1(C(=O)OC)N=CN(C2CCCCC2)C1CC1CCC(C(c2ccc(F)cc2)N(C)C)CC1 (stereo not drawn) [Example 105, 1-cyclohexyl-5-{4-[dimethylamino-(4-fluorophenyl)-methyl]-cyclohexylmethyl}-4-propyl-4,5-dihydro-1H-imidazole-4-carboxylic acid methyl ester] | 95 |
| CCCN1C=NC(C)(C(=O)OC)C1CC1CCC(C(c2cccc(F)c2)N(C)C)CC1 (stereo not drawn) [Example 117, 5-{4-[dimethylamino-(3-fluorophenyl)-methyl]-cyclohexylmethyl}-4-methyl-1-propyl-4,5-dihydro-1H-imidazole-4-carboxylic acid methyl ester] | 88 |
| CCCN1C=NC(CCC)(C(=O)OC)C1CC1CCC(C(c2ccc(F)cc2)N(C)C)CC1 (stereo not drawn) [Example 118, 5-{4-[dimethylamino-(4-fluorophenyl)-methyl]-cyclohexylmethyl}-1,4-dipropyl-4,5-dihydro-1H-imidazole-4-carboxylic acid methyl ester] | 87 |
| COC(=O)CCC1(C(=O)OC)N=CN(CCc2ccccc2)C1CC1CCC(C(c2cccc(F)c2)N(C)C)CC1 (stereo not drawn) [Example 80, 5-{4-[dimethylamino-(3-fluorophenyl)-methyl]-cyclohexylmethyl}-4-(2-methoxycarbonylethyl)-1-phenethyl-4,5-dihydro-1H-imidazole-4-carboxylic acid methyl ester] | 90 |
| CCCCN1C=NC(CCC(=O)OC)(C(=O)OC)C1CC1CCC(C(c2ccc(Cl)cc2)N(C)C)CC1 (stereo not drawn) [Example 70, 1-butyl-5-{4-[(4-chlorophenyl)-dimethylaminomethyl]-cyclohexylmethyl}-4-(2-methoxycarbonylethyl)-4,5-dihydro-1H-imidazole-4-carboxylic acid methyl ester] | 96 |
| COC(=O)CCC1(C(=O)OC)N=CN(CCc2ccccc2)C1CC1CCC(C(c2ccc(Cl)cc2)N(C)C)CC1 (stereo not drawn) [Example 94, 5-{4-[(4-chlorophenyl)-dimethylaminomethyl]-cyclohexylmethyl}-4-(2-methoxycarbonylethyl)-1-phenethyl-4,5-dihydro-1H-imidazole-4-carboxylic acid methyl ester] | 97 |
| COC(=O)C1(CSCc2ccccc2)N=CN(Cc2ccccc2)C1C1CCC(C(c2ccc(Cl)cc2)N(C)C)CC1 (stereo not drawn) [Example 98, 1-benzyl-4-benzylsulfanylmethyl-5-{4-[(4-chlorophenyl)-dimethylaminomethyl]-cyclohexyl}-4,5-dihydro-1H-imidazole-4-carboxylic acid methyl ester] | 95 |
| CCCN1C=NC(Cc2ccc(Cl)cc2)(C(=O)OC)C1CC1CCC(C(c2ccc(Cl)cc2)N(C)C)CC1 (stereo not drawn) [Example 27, 4-(4-chlorobenzyl)-5-{4-[(4-chlorophenyl)-dimethylaminomethyl]-cyclohexylmethyl}-1-propyl-4,5-dihydro-1H-imidazole-4-carboxylic acid methyl ester] | 96 |
| COC(=O)C1(CSC)N=CN(Cc2ccccc2)C1C1CCC(C(c2cccc(F)c2)N(C)C)CC1 (stereo not drawn) [Example 96, 1-benzyl-5-{4-[dimethylamino-(3-fluorophenyl)-methyl]-cyclohexyl}-4-methylsulfanylmethyl-4,5-dihydro-1H-imidazole-4-carboxylic acid methyl ester] | 97 |
| COC(=O)C1(CSC)N=CN(C2CCCCC2)C1CC1CCC(C(c2ccc(Cl)cc2)N(C)C)CC1 (stereo not drawn) [Example 55, 5-{4-[(4-chlorophenyl)-dimethylaminomethyl]-cyclohexylmethyl}-1-cyclohexyl-4-methylsulfanylmethyl-4,5-dihydro-1H-imidazole-4-carboxylic acid methyl ester] | 91 |
| CCCCN1C=NC(CCC(=O)OC)(C(=O)OC)C1CC1CCC(C(c2ccc(F)cc2)N(C)C)CC1 (stereo not drawn) [Example 76, 1-butyl-5-{4-[dimethylamino-(4-fluorophenyl)-methyl]-cyclohexylmethyl}-4-(2-methoxycarbonylethyl)-4,5-dihydro-1H-imidazole-4-carboxylic acid methyl ester] | 93 |
| CCCCN1C=NC(CSCc2ccccc2)(C(=O)OC)C1C1CCC(C(c2cccc(F)c2)N(C)C)CC1 (stereo not drawn) [Example 67, 4-benzylsulfanylmethyl-1-butyl-5-{4-[dimethylamino-(3-fluorophenyl)-methyl]-cyclohexyl}-4,5-dihydro-1H-imidazole-4-carboxylic acid methyl ester] | 88 |
| COC(=O)CCC1(C(=O)OC)N=CN(CCc2ccccc2)C1C1CCC(C(c2cccc(F)c2)N(C)C)CC1 (stereo not drawn) [Example 91, 5-{4-[dimethylamino-(3-fluorophenyl)-methyl]-cyclohexyl}-4-(2-methoxycarbonylethyl)-1-phenethyl-4,5-dihydro-1H-imidazole-4-carboxylic acid methyl ester] | 85 |
| CCCN1C=NC(CCSC)(C(=O)OC)C1CC1CCC(C(c2cccc(F)c2)N(C)C)CC1 (stereo not drawn) [Example 112, 5-{4-[dimethylamino-(3-fluorophenyl)-methyl]-cyclohexylmethyl}-4-(2-methylsulfanyl-ethyl)-1-propyl-4,5-dihydro-1H-imidazole-4-carboxylic acid methyl ester] | 95 |
| CCCN1C=NC(C(=O)OC)(C(C)CC)C1CC1CCC(C(c2ccc(Cl)cc2)N(C)C)CC1 (stereo not drawn) [Example 62, 4-sec-butyl-5-{4-[(4-chlorophenyl)-dimethylaminomethyl]-cyclohexylmethyl}-1-propyl-4,5-dihydro-1H-imidazole-4-carboxylic acid methyl ester] | 98 |
| COC(=O)C1(CCSC)N=CN(C2CCCCC2)C1CC1CCC(C(CCc2ccccc2)N(C)C)CC1 (stereo not drawn) [Example 109, 1-cyclohexyl-5-[4-(1-dimethylamino-3-phenylpropyl)-cyclohexylmethyl]-4-(2-methylsulfanyl-ethyl)-4,5-dihydro-1H-imidazole-4-carboxylic acid methyl ester] | 87 |
| COC(=O)C1(C)N=CN(CCc2ccccc2)C1CC1CCC(C(CCc2ccccc2)N(C)C)CC1 (stereo not drawn) [Example 137, 5-[4-(1-dimethylamino-3-phenylpropyl)-cyclohexylmethyl]-4-methyl-1-phenethyl-4,5-dihydro-1H-imidazole-4-carboxylic acid methyl ester] | 61 |
| COC(=O)CCC1(C(=O)OC)N=CN(Cc2ccccc2)C1CC1CCC(C(c2ccc(F)cc2)N(C)C)CC1 (stereo not drawn) [Example 87, 1-benzyl-5-{4-[dimethylamino-(4-fluorophenyl)-methyl]-cyclohexylmethyl}-4-(2-methoxycarbonylethyl)-4,5-dihydro-1H-imidazole-4-carboxylic acid methyl ester] | 95 |
| CCCN1C=NC(Cc2ccc(Cl)cc2)(C(=O)OC)C1C1CCC(C(c2cccc(F)c2)N(C)C)CC1 (stereo not drawn) [Example 22, 4-(4-chlorobenzyl)-5-{4-[dimethylamino-(3-fluorophenyl)-methyl]-cyclohexyl}-1-propyl-4,5-dihydro-1H-imidazole-4-carboxylic acid methyl ester] | 88 |
| COC(=O)C1(CSCc2ccccc2)N=CN(C2CCCCC2)C1C1CCC(C(c2ccc(Cl)cc2)N(C)C)CC1 (stereo not drawn) [Example 52, 4-benzylsulfanylmethyl-5-{4-[(4-chlorophenyl)-dimethylaminomethyl]-cyclohexyl}-1-cyclohexyl-4,5-dihydro-1H-imidazole-4-carboxylic acid methyl ester] | 99 |
| COC(=O)C1(CSCc2ccccc2)N=CN(C2CCCCC2)C1CC1CCC(C(c2ccc(Cl)cc2)N(C)C)CC1 (stereo not drawn) [Example 56, 4-benzylsulfanylmethyl-5-{4-[(4-chlorophenyl)-dimethylaminomethyl]-cyclohexylmethyl}-1-cyclohexyl-4,5-dihydro-1H-imidazole-4-carboxylic acid methyl ester] | 97 |
| COC(=O)C1(Cc2ccc(Cl)cc2)N=CN(C2CCCCC2)C1CC1CCC(C(c2cccs2)N(C)C)CC1 (stereo not drawn) [Example 20, 4-(4-chlorobenzyl)-1-cyclohexyl-5-[4-(dimethylamino-thiophen-2-yl-methyl)-cyclohexylmethyl]-4,5-dihydro-1H-imidazole-4-carboxylic acid methyl ester] | 95 |
| COC(=O)C1(CSCc2ccccc2)N=CN(Cc2ccccc2)C1CC1CCC(C(c2cccc(F)c2)N(C)C)CC1 (stereo not drawn) [Example 86, 1-benzyl-4-benzylsulfanylmethyl-5-{4-[dimethylamino-(3-fluorophenyl)-methyl]-cyclohexylmethyl}-4,5-dihydro-1H-imidazole-4-carboxylic acid methyl ester] | 71 |
| COC(=O)C1(CSCc2ccccc2)N=CN(C2CCCCC2)C1C1CCC(C(c2cccc(F)c2)N(C)C)CC1 (stereo not drawn) [Example 116, 4-benzylsulfanylmethyl-1-cyclohexyl-5-{4-[dimethylamino-(3-fluorophenyl)-methyl]-cyclohexyl}-4,5-dihydro-1H-imidazole-4-carboxylic acid methyl ester] | 101 |
| CCCCN1C=NC(C(=O)OC)(C(C)CC)C1CC1CCC(C(c2cccc(F)c2)N(C)C)CC1 (stereo not drawn) [Example 73, 1-butyl-4-sec-butyl-5-{4-[dimethylamino-(3-fluorophenyl)-methyl]-cyclohexylmethyl}-4,5-dihydro-1H-imidazole-4-carboxylic acid methyl ester] | 92 |
| COC(=O)C1(CC(C)C)N=CN(C2CCCCC2)C1C1CCC(C(c2cccc(F)c2)N(C)C)CC1 (stereo not drawn) [Example 11, 1-cyclohexyl-5-{4-[dimethylamino-(3-fluorophenyl)-methyl]-cyclohexyl}-4-isobutyl-4,5-dihydro-1H-imidazole-4-carboxylic acid methyl ester] | 84 |
